Experimental data reported in ChEMBL document CHEMBL4507265 (2021).

Columns and labels:
Rattus norvegicus [1] = species: Rattus norvegicus; conditions: Compound concentration 10.0 uM
Rattus norvegicus [2] = species: Rattus norvegicus; assay: Testosterone Eurofins-Panlabs radioligand binding assay; set-up: ligand concentration 1.5 nM; conditions: Compound concentration 10.0 uM
[3] = molecular target: T1, Alpha-1D adrenergic receptor (Homo sapiens) (UniProt P25100); assay: Inhibition of Adrenergic alpha1D at 10 µM in the Eurofins-Panlabs radioligand binding assay (Eurofins_assay_203400); conditions: Compound concentration 10.0 uM
T1 sequence (whole entry): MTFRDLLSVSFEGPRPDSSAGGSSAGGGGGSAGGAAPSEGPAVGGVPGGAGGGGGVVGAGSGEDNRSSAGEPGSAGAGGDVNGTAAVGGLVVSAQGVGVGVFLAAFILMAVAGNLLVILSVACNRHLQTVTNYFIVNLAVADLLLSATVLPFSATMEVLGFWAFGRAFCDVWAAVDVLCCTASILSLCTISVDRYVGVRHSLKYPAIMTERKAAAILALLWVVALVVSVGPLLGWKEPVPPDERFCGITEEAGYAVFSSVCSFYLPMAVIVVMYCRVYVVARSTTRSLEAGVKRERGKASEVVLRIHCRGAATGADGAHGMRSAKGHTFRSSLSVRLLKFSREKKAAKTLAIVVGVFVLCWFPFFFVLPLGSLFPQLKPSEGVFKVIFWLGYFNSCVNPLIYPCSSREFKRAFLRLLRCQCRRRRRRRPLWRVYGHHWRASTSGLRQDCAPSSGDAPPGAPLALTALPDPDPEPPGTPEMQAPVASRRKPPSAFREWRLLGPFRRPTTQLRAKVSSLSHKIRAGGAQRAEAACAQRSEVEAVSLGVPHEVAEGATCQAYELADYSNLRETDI

[4] = molecular target: Histamine H1 receptor (Homo sapiens) (UniProt P35367); conditions: Compound concentration 10.0 uM
[5] = molecular target: T2, D(4) dopamine receptor (Homo sapiens) (UniProt P21917); assay: Inhibition of Dopamine D4.2 at 10 µM in the Eurofins-Panlabs radioligand binding assay (Eurofins_assay_219900); set-up: ligand concentration 0.5 nM; conditions: Compound concentration 10.0 uM
T2 sequence (whole entry): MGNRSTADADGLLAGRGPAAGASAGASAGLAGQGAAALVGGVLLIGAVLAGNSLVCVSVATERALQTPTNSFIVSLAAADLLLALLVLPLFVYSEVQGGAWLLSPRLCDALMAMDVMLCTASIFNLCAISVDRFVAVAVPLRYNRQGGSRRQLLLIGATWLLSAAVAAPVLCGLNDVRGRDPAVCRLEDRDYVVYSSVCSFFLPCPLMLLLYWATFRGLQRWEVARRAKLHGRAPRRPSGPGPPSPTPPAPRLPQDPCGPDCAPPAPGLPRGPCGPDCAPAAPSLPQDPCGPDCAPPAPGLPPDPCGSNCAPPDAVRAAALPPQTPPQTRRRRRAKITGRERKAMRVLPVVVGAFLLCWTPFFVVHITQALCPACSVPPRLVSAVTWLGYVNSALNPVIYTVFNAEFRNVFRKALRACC

[6] = molecular target: Adenosine receptor A3 (Homo sapiens) (UniProt P0DMS8); conditions: Compound concentration 10.0 uM
[7] = molecular target: Glutamate NMDA receptor (Rattus norvegicus) (UniProt P35439+Q00959+Q00960+Q00961+Q62645+Q8VHN2+Q9R1M7); conditions: Compound concentration 10.0 uM
[8] = molecular target: Cysteinyl leukotriene receptor 1 (Homo sapiens) (UniProt Q9Y271); assay: Inhibition of Leukotriene, Cysteinyl CysLT1 at 10 µM in the Eurofins-Panlabs radioligand binding assay (Eurofins_assay_250460); set-up: ligand concentration 0.3 nM, non-specific ligand with concentration 0.3 µM Leukotriene D4, incubation time 30 min, incubation temperature 25 °C; conditions: Compound concentration 10.0 uM
[9] = molecular target: Substance-P receptor (Homo sapiens) (UniProt P25103); assay: Inhibition of Tachykinin NK1 at 10 µM in the Eurofins-Panlabs radioligand binding assay (Eurofins_assay_255520); set-up: ligand concentration 0.8 nM; conditions: Compound concentration 10.0 uM
[10] = molecular target: Voltage-dependent N-type calcium channel subunit alpha-1B (Homo sapiens) (UniProt Q00975); assay: Inhibition of Calcium Channel N-Type at 10 µM in the Eurofins-Panlabs radioligand binding assay (Eurofins_assay_216000); conditions: Rattus norvegicus; Compound concentration 10.0 uM
[11] = molecular target: B1 bradykinin receptor (Homo sapiens) (UniProt P46663); assay: Inhibition of Bradykinin B1 at 10 µM in the Eurofins-Panlabs radioligand binding assay (Eurofins_assay_212510); conditions: Compound concentration 10.0 uM
Rattus norvegicus [12] = species: Rattus norvegicus; assay: Inhibition of Imidazoline I2, Central at 10 µM in the Eurofins-Panlabs radioligand binding assay (Eurofins_assay_241000); set-up: ligand concentration 2 nM; conditions: Compound concentration 10.0 uM
[13] = molecular target: Adenosine receptor A1 (Homo sapiens) (UniProt P30542); conditions: Compound concentration 10.0 uM
[14] = molecular target: Endothelin-1 receptor (Homo sapiens) (UniProt P25101); conditions: Compound concentration 10.0 uM
[15] = molecular target: Mu-type opioid receptor (Homo sapiens) (UniProt P35372); conditions: Compound concentration 10.0 uM
[16] = molecular target: T3, Alpha-2A adrenergic receptor (Homo sapiens) (UniProt P08913); conditions: Compound concentration 10.0 uM
T3 sequence (whole entry): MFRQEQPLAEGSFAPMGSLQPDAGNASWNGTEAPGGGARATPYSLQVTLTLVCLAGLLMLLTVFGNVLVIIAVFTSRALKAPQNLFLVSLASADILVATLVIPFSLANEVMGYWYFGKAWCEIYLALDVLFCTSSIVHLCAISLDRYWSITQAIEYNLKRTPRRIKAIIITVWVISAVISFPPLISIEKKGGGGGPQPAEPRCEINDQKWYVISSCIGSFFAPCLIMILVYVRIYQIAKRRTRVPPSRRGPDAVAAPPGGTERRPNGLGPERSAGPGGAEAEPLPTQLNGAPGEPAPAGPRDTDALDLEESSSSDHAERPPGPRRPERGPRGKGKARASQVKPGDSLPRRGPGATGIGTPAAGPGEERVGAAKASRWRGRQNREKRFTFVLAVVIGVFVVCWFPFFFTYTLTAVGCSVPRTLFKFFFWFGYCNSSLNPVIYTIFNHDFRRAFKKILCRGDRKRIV

[17] = molecular target: Sodium-dependent serotonin transporter (Homo sapiens) (UniProt P31645); conditions: Compound concentration 10.0 uM
[18] = molecular target: Sodium-dependent noradrenaline transporter (Homo sapiens) (UniProt P23975); conditions: Compound concentration 10.0 uM
Mus musculus = species: Mus musculus; assay: Inhibition of Interleukin IL-1 at 10 µM in the Eurofins-Panlabs radioligand binding assay (Eurofins_assay_243520); set-up: ligand concentration 0.1 nM; conditions: Compound concentration 10.0 uM

Measured: inhibition

Sodium-dependent noradrenaline transporter (Homo sapiens), sequence (P23975 whole entry): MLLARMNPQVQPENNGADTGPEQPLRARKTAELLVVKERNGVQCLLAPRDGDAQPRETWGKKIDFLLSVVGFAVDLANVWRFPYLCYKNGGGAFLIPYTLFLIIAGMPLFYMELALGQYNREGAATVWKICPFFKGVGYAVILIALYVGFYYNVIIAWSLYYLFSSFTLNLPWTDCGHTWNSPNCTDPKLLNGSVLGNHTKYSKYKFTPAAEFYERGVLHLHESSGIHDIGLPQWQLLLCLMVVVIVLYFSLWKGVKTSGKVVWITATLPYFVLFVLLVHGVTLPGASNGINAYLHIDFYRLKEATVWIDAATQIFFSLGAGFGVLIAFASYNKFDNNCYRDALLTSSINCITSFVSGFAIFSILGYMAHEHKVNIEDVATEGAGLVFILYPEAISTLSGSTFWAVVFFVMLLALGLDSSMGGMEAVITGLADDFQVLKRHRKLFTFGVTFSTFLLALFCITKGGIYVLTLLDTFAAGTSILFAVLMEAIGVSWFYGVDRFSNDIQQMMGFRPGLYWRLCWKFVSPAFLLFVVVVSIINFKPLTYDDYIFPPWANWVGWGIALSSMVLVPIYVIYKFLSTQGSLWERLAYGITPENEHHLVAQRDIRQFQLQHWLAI
Substance-P receptor (Homo sapiens), sequence (P25103 whole entry): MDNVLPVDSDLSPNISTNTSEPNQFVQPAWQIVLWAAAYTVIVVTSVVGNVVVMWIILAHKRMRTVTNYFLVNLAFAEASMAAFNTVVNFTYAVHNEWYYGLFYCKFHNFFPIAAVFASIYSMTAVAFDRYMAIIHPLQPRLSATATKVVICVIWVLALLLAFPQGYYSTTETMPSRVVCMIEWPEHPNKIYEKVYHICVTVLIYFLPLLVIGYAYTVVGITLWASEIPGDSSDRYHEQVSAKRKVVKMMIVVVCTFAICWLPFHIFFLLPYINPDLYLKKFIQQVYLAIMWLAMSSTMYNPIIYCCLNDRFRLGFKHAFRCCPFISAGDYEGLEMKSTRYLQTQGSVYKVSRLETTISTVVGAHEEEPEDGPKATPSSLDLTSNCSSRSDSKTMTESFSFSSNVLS
Sodium-dependent serotonin transporter (Homo sapiens), sequence (P31645 whole entry, looked up): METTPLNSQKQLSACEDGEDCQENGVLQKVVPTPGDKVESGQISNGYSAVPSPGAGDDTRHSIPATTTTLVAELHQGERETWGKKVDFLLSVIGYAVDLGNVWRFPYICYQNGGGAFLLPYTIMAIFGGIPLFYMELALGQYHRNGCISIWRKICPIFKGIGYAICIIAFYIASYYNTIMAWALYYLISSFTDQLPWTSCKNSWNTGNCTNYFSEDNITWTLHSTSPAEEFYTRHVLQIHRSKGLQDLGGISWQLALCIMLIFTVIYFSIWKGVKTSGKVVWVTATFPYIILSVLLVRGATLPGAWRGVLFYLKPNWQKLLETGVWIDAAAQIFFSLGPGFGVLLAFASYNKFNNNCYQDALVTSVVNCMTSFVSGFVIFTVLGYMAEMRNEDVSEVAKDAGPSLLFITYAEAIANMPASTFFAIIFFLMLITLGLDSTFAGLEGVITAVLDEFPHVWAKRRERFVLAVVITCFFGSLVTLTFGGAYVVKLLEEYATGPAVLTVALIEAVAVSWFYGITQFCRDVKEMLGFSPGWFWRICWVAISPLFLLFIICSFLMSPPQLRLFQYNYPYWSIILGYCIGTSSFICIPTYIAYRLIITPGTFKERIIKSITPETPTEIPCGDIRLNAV
Voltage-dependent N-type calcium channel subunit alpha-1B (Homo sapiens), sequence (Q00975 whole entry, looked up): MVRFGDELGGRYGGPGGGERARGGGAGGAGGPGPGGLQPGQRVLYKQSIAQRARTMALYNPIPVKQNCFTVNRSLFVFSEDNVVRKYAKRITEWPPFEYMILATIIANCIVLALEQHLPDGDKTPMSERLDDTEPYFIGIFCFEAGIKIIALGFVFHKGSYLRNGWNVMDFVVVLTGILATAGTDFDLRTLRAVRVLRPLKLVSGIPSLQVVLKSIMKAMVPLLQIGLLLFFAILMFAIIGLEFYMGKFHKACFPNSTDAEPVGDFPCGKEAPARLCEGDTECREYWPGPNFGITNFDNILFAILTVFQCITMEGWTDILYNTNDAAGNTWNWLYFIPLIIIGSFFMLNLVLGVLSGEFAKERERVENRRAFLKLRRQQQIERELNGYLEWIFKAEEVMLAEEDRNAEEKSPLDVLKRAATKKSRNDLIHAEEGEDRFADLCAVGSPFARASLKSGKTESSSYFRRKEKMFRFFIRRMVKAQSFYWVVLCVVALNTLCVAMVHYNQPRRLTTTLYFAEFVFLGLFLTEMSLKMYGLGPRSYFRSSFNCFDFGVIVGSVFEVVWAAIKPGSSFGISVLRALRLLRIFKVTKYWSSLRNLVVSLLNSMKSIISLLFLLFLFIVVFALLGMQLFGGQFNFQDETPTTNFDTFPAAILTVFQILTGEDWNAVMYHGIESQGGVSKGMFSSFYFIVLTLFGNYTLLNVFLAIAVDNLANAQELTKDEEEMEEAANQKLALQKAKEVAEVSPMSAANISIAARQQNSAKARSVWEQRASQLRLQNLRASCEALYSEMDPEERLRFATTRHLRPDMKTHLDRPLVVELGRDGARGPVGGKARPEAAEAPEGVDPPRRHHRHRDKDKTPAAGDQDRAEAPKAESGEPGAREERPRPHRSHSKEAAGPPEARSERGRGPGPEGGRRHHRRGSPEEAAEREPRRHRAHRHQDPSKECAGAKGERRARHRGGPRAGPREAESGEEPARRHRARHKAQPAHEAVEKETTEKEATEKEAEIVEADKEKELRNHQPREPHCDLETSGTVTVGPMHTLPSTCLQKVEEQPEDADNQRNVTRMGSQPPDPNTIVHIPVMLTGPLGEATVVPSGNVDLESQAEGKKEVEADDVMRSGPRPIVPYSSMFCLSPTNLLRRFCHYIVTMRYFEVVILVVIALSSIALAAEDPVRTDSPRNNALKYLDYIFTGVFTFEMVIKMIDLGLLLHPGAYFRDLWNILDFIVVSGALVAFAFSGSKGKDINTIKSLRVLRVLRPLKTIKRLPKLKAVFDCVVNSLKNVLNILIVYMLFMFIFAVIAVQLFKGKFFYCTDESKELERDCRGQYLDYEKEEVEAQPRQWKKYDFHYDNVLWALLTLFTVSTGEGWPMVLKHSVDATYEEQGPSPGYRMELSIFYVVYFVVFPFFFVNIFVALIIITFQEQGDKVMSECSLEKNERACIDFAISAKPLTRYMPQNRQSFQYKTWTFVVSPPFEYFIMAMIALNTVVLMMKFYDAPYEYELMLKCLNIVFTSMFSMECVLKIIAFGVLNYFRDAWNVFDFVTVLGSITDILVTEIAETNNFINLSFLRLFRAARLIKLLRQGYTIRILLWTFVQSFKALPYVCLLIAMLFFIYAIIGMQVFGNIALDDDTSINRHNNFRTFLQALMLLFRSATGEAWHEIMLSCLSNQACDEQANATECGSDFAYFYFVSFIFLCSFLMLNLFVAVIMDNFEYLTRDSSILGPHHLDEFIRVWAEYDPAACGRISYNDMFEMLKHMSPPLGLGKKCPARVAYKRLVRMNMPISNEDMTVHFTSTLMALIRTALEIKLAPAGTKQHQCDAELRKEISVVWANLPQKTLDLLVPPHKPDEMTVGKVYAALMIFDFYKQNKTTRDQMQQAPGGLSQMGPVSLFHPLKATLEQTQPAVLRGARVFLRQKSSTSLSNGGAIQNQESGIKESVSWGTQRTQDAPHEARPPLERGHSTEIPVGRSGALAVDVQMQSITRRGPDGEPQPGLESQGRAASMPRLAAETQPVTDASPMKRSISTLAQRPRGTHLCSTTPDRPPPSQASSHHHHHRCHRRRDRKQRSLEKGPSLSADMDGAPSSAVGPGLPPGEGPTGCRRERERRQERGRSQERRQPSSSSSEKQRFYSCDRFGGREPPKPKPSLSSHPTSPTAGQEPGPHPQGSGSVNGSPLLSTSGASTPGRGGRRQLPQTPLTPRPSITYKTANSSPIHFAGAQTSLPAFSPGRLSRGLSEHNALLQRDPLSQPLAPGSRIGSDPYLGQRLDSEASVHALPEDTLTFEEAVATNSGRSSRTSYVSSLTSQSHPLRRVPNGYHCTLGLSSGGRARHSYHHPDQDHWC
Mu-type opioid receptor (Homo sapiens), sequence (P35372 whole entry): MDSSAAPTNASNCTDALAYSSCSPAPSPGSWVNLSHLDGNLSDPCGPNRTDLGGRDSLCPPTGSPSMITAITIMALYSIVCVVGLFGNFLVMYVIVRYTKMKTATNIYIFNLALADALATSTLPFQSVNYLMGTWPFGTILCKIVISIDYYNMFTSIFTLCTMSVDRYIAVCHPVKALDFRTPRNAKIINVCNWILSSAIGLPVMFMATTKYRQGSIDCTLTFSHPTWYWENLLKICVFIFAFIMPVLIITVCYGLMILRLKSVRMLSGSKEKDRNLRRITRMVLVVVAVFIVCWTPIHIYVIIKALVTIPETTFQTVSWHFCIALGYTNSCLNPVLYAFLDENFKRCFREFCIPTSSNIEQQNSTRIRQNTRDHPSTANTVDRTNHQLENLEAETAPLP
Histamine H1 receptor (Homo sapiens), sequence (P35367 whole entry): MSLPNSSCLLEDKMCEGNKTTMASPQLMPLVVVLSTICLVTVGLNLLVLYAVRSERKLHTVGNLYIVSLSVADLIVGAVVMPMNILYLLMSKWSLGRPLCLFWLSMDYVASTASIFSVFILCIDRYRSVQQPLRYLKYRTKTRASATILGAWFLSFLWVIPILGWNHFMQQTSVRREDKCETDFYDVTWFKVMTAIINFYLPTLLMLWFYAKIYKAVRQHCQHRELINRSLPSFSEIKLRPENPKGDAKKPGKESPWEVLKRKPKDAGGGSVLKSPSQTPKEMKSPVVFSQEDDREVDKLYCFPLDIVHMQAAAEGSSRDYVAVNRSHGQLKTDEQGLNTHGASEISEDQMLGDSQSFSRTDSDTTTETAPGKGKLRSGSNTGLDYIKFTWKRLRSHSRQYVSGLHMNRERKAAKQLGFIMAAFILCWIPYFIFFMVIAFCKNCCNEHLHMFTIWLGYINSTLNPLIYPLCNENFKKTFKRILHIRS

NS(=O)(=O)c1cc(NC(=O)Cc2ccccc2)ccc1Oc1cccc(Cl)c1 [BAY-1797]
inactive: Rattus norvegicus [1] -10% | Rattus norvegicus [2] 17% | [3] 5% | [4] 15% | [5] 4% | [6] 47% | [7] -9% | [8] 8% | [9] 4% | [10] 6% | [11] 11% | Rattus norvegicus [12] 10% | [13] 35% | [14] 3% | [15] 9% | [16] 26% | [17] 4% | [18] 47% | Mus musculus 24%
